Measured values taken from ChEMBL document CHEMBL1145275, “Dihydroindenoisoquinolines function as prodrugs of indenoisoquinolines” (2005).
Blank lines part the entries; values can stand above or below the compound they belong to.

Legend:
[1] = target: T1, DNA topoisomerase 1 (Homo sapiens) (UniProt P11387); assay: Concentration tested for Top1-mediated DNA cleavage (concentration taken upto 100 uM); +++: Good activity; type: functional
T1 sequence (whole entry): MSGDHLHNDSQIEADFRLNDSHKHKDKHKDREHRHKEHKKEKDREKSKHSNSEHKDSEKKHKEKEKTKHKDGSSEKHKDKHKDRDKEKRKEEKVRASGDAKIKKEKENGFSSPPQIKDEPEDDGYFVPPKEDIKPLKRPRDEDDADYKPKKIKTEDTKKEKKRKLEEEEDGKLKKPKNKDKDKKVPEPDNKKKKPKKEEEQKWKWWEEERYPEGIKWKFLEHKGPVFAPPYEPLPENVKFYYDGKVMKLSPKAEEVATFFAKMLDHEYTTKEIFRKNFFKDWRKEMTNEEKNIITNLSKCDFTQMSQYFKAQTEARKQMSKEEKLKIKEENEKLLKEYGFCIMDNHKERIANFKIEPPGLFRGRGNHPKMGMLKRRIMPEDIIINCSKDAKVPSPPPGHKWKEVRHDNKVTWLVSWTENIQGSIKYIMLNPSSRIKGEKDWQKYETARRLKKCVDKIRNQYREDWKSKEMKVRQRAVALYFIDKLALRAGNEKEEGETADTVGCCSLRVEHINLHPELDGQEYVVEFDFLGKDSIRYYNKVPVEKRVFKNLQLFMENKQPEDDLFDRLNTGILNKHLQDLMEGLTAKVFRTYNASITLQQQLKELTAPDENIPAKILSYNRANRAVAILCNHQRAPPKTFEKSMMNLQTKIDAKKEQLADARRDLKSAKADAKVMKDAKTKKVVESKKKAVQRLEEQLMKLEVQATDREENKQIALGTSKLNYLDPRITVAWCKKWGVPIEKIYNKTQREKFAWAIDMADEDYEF

[2] = tested on: Cell line; assay: Mean graph midpoint for growth inhibition of all human cancer cell lines; type: functional
[3] = tested on: UACC-62; assay: (§1) Growth inhibition against Melanoma UACC-62 cell line; type: functional; settings: Homo sapiens
[4] = tested on: DU-145; assay: Growth inhibition against ProstateDU-145 cell line; type: functional; settings: Homo sapiens
[5] = Growth inhibition against Renal SN12C cell line; type: functional; settings: Homo sapiens
[6] = tested on: HOP-62; assay: Growth inhibition against Lung HOP-62 cell line; type: functional; settings: Homo sapiens
[7] = tested on: OVCAR-3; assay: Growth inhibition against OvarianOVCAR-3 cell line; type: functional; settings: Homo sapiens
[8] = target: T1, DNA topoisomerase 1 (Homo sapiens); assay: Concentration tested for Top1-mediated DNA cleavage (concentration taken upto 100 uM); ++: similar activity as the parent compound 3a; type: functional
[9] = Growth inhibition against ColonHCT-116 cell line; type: functional; settings: Homo sapiens
[10] = tested on: SF-539; assay: Growth inhibition against CNSSF-539 cell line; type: functional; settings: Homo sapiens
[11] = tested on: MDA-MB-435; assay: (§2) Growth inhibition against Breast MDA-MB-435 cell line; type: functional; settings: Homo sapiens
[12] = tested on: HCT-116; assay: Ratio of the growth inhibition for HCT116 Top1 resistant cells to that of parental cells; Value expressed as RF (resistance factor); type: functional, Homo sapiens
[13] = Growth inhibition against CNS SF-539 cell line; type: functional; settings: Homo sapiens
[14] = Growth inhibition against Colon HCT116 cell line; type: functional, Homo sapiens, HCT-116
[15] = as §1; type: functional, Homo sapiens
[16] = tested on: HCT-116; assay: Ratio of the growth inhibition for HCT116 resistant cells to that of parental cells; Value expressed as RF (resistance factor); type: functional, Homo sapiens
[17] = tested on: HCT-116; assay: Growth inhibition against HCT116 cell line; type: functional; settings: Homo sapiens
[18] = Ratio of the growth inhibition for P388/CPT 45 resistant cells to that of parental cells; Value expressed as RF (resistance factor); type: functional, Homo sapiens
[19] = tested on: DU-145; assay: Growth inhibition against Prostate DU-145 cell line; type: functional; settings: Homo sapiens
[20] = tested on: HCT-116; assay: Ratio of the growth inhibition for Top1 siRNA cells (HCT116-Top1) to that for the vector-control cells (HCT116-V); Value expressed as RF (resistance factor); type: functional, Homo sapiens
[21] = tested on: HCT-116; assay: Growth inhibition against HCT116 V cell line; type: functional; settings: Homo sapiens
[22] = target: T1, DNA topoisomerase 1 (Homo sapiens); assay: Concentration tested for Top1-mediated DNA cleavage (concentration taken upto 100 uM); type: functional
[23] = tested on: OVCAR-3; assay: Growth inhibition against Ovarian OVCAR-3 cell line; type: functional; settings: Homo sapiens
[24] = tested on: HCT-116; assay: Growth inhibition against HCT116 DNA topoisomerase 1 in (Top1-deficient and parental tumor cells); type: functional; settings: Homo sapiens
[25] = tested on: P388; assay: Ratio of the growth inhibition for P388 resistant cells to that of parental cells; Value expressed as RF (resistance factor); type: functional, Homo sapiens
[26] = Growth inhibition against P388 cell line in; type: functional
[27] = tested on: P388; assay: Growth inhibition against P388 cell line; type: functional; settings: Mus musculus
[28] = as §2; type: functional; settings: Homo sapiens
[29] = target: T1, DNA topoisomerase 1 (Homo sapiens); assay: Concentration tested for Top1-mediated DNA cleavage;+: weak activity; type: functional
[30] = target: T1, DNA topoisomerase 1 (Homo sapiens); assay: Concentration tested for Top1-mediated DNA cleavage (concentration taken upto 100 uM);0: no activity; type: functional
[31] = target: T1, DNA topoisomerase 1 (Homo sapiens); assay: Concentration tested for Top1-mediated DNA cleavage (concentration taken upto 100 uM);+: weak activity; type: functional

SMILES: O=C1c2cc3c(cc2-c2c1c1ccc([N+](=O)[O-])cc1c(=O)n2CCCCl)OCO3
Concentration [1]: 100 µM | MGM [2]: 0.83 µM

SMILES: COc1cc2c3c(n(C)c(=O)c2cc1OC)-c1cc2c(cc1C3=O)OCO2
GI50 [3]: 4.2 µM | GI50 [4]: 37 µM | GI50 [5]: 68 µM | GI50 [6]: 1.3 µM | GI50 [7]: 73 µM | Concentration [8]: 100 µM | GI50 [9]: 35 µM | GI50 [10]: 41 µM | GI50 [11]: 96 µM | MGM [2]: 20 µM

SMILES: O=C1c2cc3c(cc2[C@@H]2[C@H]1c1ccc([N+](=O)[O-])cc1C(=O)N2CCCCl)OCO3
Concentration [29]: 100 µM | MGM [2]: 0.018 µM

SMILES: C=CCn1c2c(c3cc(OC)c(OC)cc3c1=O)C(=O)c1cc3c(cc1-2)OCO3
Concentration [31]: 100 µM | MGM [2]: 4.16 µM

More lines, main results first:

GI50 [17]: 0.0599 µM | GI50 [19]: 4.1 µM | GI50 [21]: 0.418 µM | Concentration [22]: 100 µM | GI50 [23]: 6.7 µM | GI50 [27]: 0.00988 µM
SMILES: COc1cc2c(cc1OC)[C@H]1C(=O)c3cc4c(cc3[C@H]1N(C)C2=O)OCO4
RF [12]: 35 | GI50 [13]: 3.1 µM | GI50 [5]: 2.1 µM | GI50 ([14]; Homo sapiens, HCT-116): 2 µM | GI50 [6]: 9.4 µM | GI50 ([15]; Homo sapiens, UACC-62): 0.42 µM | RF [16]: 1 | RF [18]: 128 | RF [20]: 7 | GI50 [24]: 0.012 µM | RF [25]: 1 | GI50 [26]: 1.26 µM | GI50 [28]: 17 µM | MGM [2]: 5 µM

Concentration [8]: 100 µM
SMILES: COc1cc2c(cc1OC)[C@@]1(C)C(=O)c3cc4c(cc3[C@H]1N(C)C2=O)OCO4
GI50 [13]: 96.2 µM | GI50 [5]: 26 µM | GI50 [14]: 24 µM | GI50 ([14]; Homo sapiens, HCT-116): 43.5 µM | GI50 [6]: > 100 µM | GI50 [15]: 58.1 µM | GI50 ([15]; Homo sapiens, UACC-62): 82.4 µM | GI50 [28]: > 100 µM | MGM [2]: 51.3 µM

Concentration [30]: 100 µM
SMILES: C=CCN1C(=O)c2cc(OC)c(OC)cc2[C@H]2C(=O)c3cc4c(cc3[C@H]21)OCO4
MGM [2]: 0.98 µM
